Reference: patent US8293736B2, “Purine compounds selective for PI3K P110 delta, and methods of use” (F. Hoffmann la Roche AG, priority 2010, dated 2012)

Legend:
[1] = biological target: T1, p110 delta (Homo sapiens, UniProt O00329); assay: PI3K isoform inhibition assay (fluorescence polarization), p110 delta; type: biochemical; details: Ki apparent, Morrison equation; 25 μM ATP, 10 μM PIP2
T1 construct: purchased Upstate Group, Millipore; Dundee, UK
Description: (§1) Determination of the activity of PI3 kinase activity of Formula I compounds is possible by a number of direct and indirect detection methods.
(§2) PI3K enzymatic activity was assayed by measuring the amount of product phosphatidylinositol 3,4,5-phosphate (PIP3) formed from substrate 4,5 phosphatidylinositol 4,5-phosphate (PIP2) using a fluorescence polarization displacement assay. The decrease in fluorescence polarization of a fluorescent PIP3 probe is measured as it is displaced from a PIP3-binding protein GRP-1 detector by PI3K-catalyzed product. […] The kinase reactions were initiated by the addition of 40 ng/mL p110α/p85α, 300 ng/mL p110β/p85α, 40 ng/mL p110γ, or 40 ng/mL p110δ/p85α (Upstate Group, Millipore; Dundee, UK), and 10 μM PIP2 (Echelon Biosciences) to the wells. […] After 60 minutes of incubation at room temperature to allow equilibration of labeled and unlabeled PIP3 binding, the parallel and perpendicular components of the fluorescence emissions from each sample were measured at an excitation wavelength of 530 nm and an emission wavelength of 590 nm using an Envision fluorescent plate reader with a rhodamine filter (PerkinElmer Life and Analytical Sciences; Wellesley, Mass.). The assay is capable of detecting 0.1-2.0 μM PIP3 product. The Ki apparent values were obtained by fitting the dose-dependent inhibition data to the Morrison equation for tight-binding, competitive inhibitors. Reference: R. A. Copeland, Enzymes. “A Practical Introduction to Structure, Mechanism and Data Analysis”.
The Formula I compound was serially diluted in 100% DMSO. The kinase reaction was incubated for 1 h at room temperature, and the reaction was terminated by the addition of PBS. IC50 values were subsequently determined using sigmoidal dose-response curve fit (variable slope). […]

[2] = biological target: T2, p110 alpha (Homo sapiens, UniProt P42336); assay: PI3K isoform inhibition assay (fluorescence polarization), p110 alpha; type: biochemical; details: delta/alpha selectivity ratio
T2 construct: purchased Upstate Group, Millipore; Dundee, UK
T2 sequence (P42336 whole entry, species assumed, canonical isoform): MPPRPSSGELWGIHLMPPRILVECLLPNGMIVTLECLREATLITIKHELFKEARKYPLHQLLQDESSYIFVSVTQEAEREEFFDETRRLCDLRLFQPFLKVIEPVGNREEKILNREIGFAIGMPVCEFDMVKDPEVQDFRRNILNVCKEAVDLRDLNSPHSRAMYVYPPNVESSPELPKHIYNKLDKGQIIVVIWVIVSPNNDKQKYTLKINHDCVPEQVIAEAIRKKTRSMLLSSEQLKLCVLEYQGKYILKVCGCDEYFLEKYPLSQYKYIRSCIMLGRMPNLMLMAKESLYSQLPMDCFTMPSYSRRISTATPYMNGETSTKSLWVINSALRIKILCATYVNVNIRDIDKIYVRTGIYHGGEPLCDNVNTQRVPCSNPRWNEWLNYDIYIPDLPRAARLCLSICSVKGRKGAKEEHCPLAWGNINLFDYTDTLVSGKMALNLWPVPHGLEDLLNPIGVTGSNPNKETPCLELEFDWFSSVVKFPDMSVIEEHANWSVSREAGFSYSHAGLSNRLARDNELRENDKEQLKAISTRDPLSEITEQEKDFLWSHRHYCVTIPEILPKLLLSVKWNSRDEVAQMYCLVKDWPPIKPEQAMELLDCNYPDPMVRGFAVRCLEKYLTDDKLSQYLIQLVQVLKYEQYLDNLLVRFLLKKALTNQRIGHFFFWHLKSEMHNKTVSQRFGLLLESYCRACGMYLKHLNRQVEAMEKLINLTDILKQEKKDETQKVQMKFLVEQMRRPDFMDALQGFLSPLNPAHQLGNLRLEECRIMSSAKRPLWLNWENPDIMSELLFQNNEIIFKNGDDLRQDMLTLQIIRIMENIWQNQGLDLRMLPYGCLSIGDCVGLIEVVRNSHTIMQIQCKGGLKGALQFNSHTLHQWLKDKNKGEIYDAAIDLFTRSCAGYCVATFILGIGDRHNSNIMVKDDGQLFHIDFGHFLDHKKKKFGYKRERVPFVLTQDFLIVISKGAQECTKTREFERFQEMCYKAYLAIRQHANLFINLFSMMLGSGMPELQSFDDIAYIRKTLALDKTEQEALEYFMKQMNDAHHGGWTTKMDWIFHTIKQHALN
T2 sequence (P27986 whole entry partner, species assumed, canonical isoform): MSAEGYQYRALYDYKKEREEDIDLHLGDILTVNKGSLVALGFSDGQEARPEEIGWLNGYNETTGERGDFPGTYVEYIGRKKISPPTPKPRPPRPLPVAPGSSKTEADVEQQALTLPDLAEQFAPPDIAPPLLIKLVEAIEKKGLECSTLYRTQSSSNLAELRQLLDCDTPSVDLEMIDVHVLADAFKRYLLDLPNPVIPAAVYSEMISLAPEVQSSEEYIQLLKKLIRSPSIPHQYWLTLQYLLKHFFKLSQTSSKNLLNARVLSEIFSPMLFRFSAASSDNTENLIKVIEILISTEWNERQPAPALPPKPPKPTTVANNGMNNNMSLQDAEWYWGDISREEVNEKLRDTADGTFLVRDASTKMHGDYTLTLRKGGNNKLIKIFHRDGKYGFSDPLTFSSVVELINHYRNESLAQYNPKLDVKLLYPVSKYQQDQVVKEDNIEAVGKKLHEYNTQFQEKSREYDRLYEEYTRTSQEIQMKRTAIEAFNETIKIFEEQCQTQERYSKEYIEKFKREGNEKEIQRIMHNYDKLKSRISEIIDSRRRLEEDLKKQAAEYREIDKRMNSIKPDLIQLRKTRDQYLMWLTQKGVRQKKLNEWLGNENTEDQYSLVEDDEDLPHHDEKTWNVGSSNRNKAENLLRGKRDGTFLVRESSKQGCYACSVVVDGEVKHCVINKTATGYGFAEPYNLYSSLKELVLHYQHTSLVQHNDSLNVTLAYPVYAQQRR
Description: as §1, §2
The same protocol may be used to establish Ki values for p110α (alpha) PI3K binding.
The four Class I PI 3-kinases are cloned into baculovirus vectors as follows: […]

T1 sequence (O00329 whole entry, canonical isoform): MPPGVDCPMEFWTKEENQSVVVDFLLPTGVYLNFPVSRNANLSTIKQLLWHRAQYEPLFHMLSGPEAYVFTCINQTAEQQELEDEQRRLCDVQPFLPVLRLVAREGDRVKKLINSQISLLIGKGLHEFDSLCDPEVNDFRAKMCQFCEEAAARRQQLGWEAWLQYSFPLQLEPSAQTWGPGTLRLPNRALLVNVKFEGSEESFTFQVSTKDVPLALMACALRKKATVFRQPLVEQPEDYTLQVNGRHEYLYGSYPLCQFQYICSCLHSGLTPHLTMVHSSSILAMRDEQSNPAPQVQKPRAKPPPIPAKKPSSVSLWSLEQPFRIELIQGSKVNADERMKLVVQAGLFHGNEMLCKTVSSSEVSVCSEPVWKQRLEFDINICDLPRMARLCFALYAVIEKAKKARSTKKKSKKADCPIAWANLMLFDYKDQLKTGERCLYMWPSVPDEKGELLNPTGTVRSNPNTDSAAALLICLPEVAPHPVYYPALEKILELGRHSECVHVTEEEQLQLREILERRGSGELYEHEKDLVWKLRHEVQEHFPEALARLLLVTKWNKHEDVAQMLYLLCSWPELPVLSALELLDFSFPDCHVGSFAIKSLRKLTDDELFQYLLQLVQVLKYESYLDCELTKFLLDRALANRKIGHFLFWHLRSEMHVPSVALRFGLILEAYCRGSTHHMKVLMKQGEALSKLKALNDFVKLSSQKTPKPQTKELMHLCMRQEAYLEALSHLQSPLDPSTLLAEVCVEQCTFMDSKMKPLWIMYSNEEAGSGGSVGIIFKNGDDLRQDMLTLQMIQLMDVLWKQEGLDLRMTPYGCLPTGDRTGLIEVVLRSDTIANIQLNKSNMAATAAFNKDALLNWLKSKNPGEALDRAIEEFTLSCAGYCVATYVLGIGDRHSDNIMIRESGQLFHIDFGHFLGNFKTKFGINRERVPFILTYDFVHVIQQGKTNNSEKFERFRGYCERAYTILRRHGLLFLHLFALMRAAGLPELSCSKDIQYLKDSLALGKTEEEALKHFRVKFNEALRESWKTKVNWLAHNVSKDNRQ
T1 sequence (P27986 whole entry partner, canonical isoform): as the sequence (P27986 whole entry partner, species assumed, canonical isoform) above

Row | SMILES | Ki [1] [nM] | Ki p110 alpha/ Ki p110 delta [2]
1 | CCc1nc2ccccc2n1-c1nc(N2CCOCC2)c2nc(OC3CCN(C4CCC(O)CC4)CC3)n(C)c2n1 (single isomer, unassigned) [Compound 130, 4-(4-(2-(2-ethyl-1H-benzo[d]imidazol-1-yl)-9-methyl-6-morpholino-9H-purin-8-yloxy)piperidin-1-yl)cyclohexanol] | 0.594 | 151
2 | CCc1nc2ccccc2n1-c1nc(N2CCOCC2)c2nc(OC3CCN(C(C)=O)CC3)n(C)c2n1 [Compound 102, 1-(4-(2-(2-ethyl-1H-benzo[d]imidazol-1-yl)-9-methyl-6-morpholino-9H-purin-8-yloxy)piperidin-1-yl)ethanone] | 1.02 | 81
3 | CC(C)c1nc2ccccc2n1-c1nc(N2CCOCC2)c2nc(OC3CN(C4CCOCC4)C3)n(C)c2n1 [Compound 104, 4-(2-(2-isopropyl-1H-benzo[d]imidazol-1-yl)-9-methyl-8-(1-(tetrahydro-2H-pyran-4-yl)azetidin-3-yloxy)-9H-purin-6-yl)morpholine] | 0.651 | 202
4 | CCc1nc2ccccc2n1-c1nc(N2CCOCC2)c2nc(OC3CCN(C4CCS(=O)(=O)CC4)CC3)n(C)c2n1 [Compound 106, 4-(2-(2-ethyl-1H-benzo[d]imidazol-1-yl)-9-methyl-8-(1,1-dioxo-1-(tetrahydro-2H-thiopyran-4-yl)piperidin-4-yloxy)-9H-purin-6-yl)morpholine] | 0.441 | 73
5 | CCc1nc2ccccc2n1-c1nc(N2CCOCC2)c2nc(OC3CCN(C(=O)C(C)(C)O)CC3)n(C)c2n1 [Compound 112, 1-(4-(2-(2-ethyl-1H-benzo[d]imidazol-1-yl)-9-methyl-6-morpholino-9H-purin-8-yloxy)piperidin-1-yl)-2-hydroxy-2-methylpropan-1-one] | 1.4 | 122
6 | CCc1nc2ccccc2n1-c1nc(N2CCOCC2)c2nc(OC3CN(C4CCS(=O)(=O)CC4)C3)n(C)c2n1 [Compound 114, 4-(2-(2-ethyl-1H-benzo[d]imidazol-1-yl)-9-methyl-8-(1-(1,1-dioxo-tetrahydro-2H-thiopyran-4-yl)azetidin-3-yloxy)-9H-purin-6-yl)morpholine] | 1.26 | 163
7 | CCc1nc2ccccc2n1-c1nc(N2CCOCC2)c2nc(OC3CN(C4CCOCC4)C3)n(C)c2n1 [Compound 116, 4-(2-(2-ethyl-1H-benzo[d]imidazol-1-yl)-9-methyl-8-(1-(tetrahydro-2H-pyran-4-yl)azetidin-3-yloxy)-9H-purin-6-yl)morpholine] | 1.28 | 118
8 | CCc1nc2ccccc2n1-c1nc(N2CCOCC2)c2nc(OC3CN(C(=O)[C@H](C)OC)C3)n(C)c2n1 [Compound 120, (S)-1-(3-(2-(2-ethyl-1H-benzo[d]imidazol-1-yl)-9-methyl-6-morpholino-9H-purin-8-yloxy)azetidin-1-yl)-2-methoxypropan-1-one] | 1.24 | 93
9 | CCc1nc2ccccc2n1-c1nc(N2CCOCC2)c2nc(OC3CN(C(=O)C(C)(C)CO)C3)n(C)c2n1 [Compound 151, 1-(3-(2-(2-ethyl-1H-benzo [d]imidazol-1-yl)-9-methyl-6-morpholino-9H-purin-8-yloxy)azetidin-1-yl)-3-hydroxy-2,2-dimethylpropan-1-one] | – | 126

Next, values leading:

Row | Ki [1] [nM] | Ki p110 alpha/ Ki p110 delta [2] | SMILES
10 | 0.657 | 178 | CCc1nc2ccccc2n1-c1nc(N2CCOCC2)c2nc(OC3CN(C4CC[S+]([O-])CC4)C3)n(C)c2n1 (single isomer, unassigned) [Compound 123, 4-(2-(2-ethyl-1H-benzo[d]imidazol-1-yl)-9-methyl-8-(1-(1-oxo-tetrahydro-2H-thiopyran-4-yl)azetidin-3-yloxy)-9H-purin-6-yl)morpholine]
11 | 0.494 | 177 | CCc1nc2ccccc2n1-c1nc(N2CCOCC2)c2nc(OC3CCN(C(=O)C(C)C)CC3)n(C)c2n1 [Compound 108, 1-(4-(2-(2-ethyl-1H-benzo[d]imidazol-1-yl)-9-methyl-6-morpholino-9H-purin-8-yloxy)piperidin-1-yl)-2-methylpropan-1-one]
12 | 1.15 | 32.2 | CCc1nc2ccccc2n1-c1nc(N2CCOCC2)c2nc(OC3CCN(C4COC4)CC3)n(C)c2n1 [Compound 109, 4-(2-(2-ethyl-1H-benzo[d]imidazol-1-yl)-9-methyl-8-(1-(oxetan-3-yl)piperidin-4-yloxy)-9H-purin-6-yl)morpholine]
13 | 1.05 | 98 | CCc1nc2ccccc2n1-c1nc(N2CCOCC2)c2nc(OC3CCN(C(=O)C4CC4)CC3)n(C)c2n1 [Compound 110, cyclopropyl(4-(2-(2-ethyl-1H-benzo[d]imidazol-1-yl)-9-methyl-6-morpholino-9H-purin-8-yloxy)piperidin-1-yl)methanone]
14 | 1.64 | 102 | CC(C)c1nc2ccccc2n1-c1nc(N2CCOCC2)c2nc(OC3CN(C4COC4)C3)n(C)c2n1 [Compound 111, 4-(2-(2-isopropyl-1H-benzo[d]imidazol-1-yl)-9-methyl-8-(1-(oxetan-3-yl)azetidin-3-yloxy)-9H-purin-6-yl)morpholine]
15 | 0.879 | 178 | CCc1nc2ccccc2n1-c1nc(N2CCOCC2)c2nc(OC3CCN(C(=O)C(C)(C)C)CC3)n(C)c2n1 [Compound 113, 1-(4-(2-(2-ethyl-1H-benzo[d]imidazol-1-yl)-9-methyl-6-morpholino-9H-purin-8-yloxy)piperidin-1-yl)-2,2-dimethylpropan-1-one]
16 | 2.22 | 70 | CCc1nc2ccccc2n1-c1nc(N2CCOCC2)c2nc(OC3CN(C(=O)C(C)(C)O)C3)n(C)c2n1 [Compound 115, 1-(3-(2-(2-ethyl-1H-benzo[d]imidazol-1-yl)-9-methyl-6-morpholino-9H-purin-8-yloxy)azetidin-1-yl)-2-hydroxy-2-methylpropan-1-one]
17 | 0.503 | 132 | CCc1nc2ccccc2n1-c1nc(N2CCOCC2)c2nc(OC3CN(C(=O)[C@@H](C)OC)C3)n(C)c2n1 [Compound 117, (R)-1-(3-(2-(2-ethyl-1H-benzo[d]imidazol-1-yl)-9-methyl-6-morpholino-9H-purin-8-yloxy)azetidin-1-yl)-2-methoxypropan-1-one]
18 | 0.539 | 76 | CCc1nc2ccccc2n1-c1nc(N2CCOCC2)c2nc(OC3CN(S(=O)(=O)C4CC4)C3)n(C)c2n1 [Compound 118, 4-(8-(1-(cyclopropylsulfonyl)azetidin-3-yloxy)-2-(2-ethyl-1H-benzo[d]imidazol-1-yl)-9-methyl-9H-purin-6-yl)morpholine]
19 | – | 115 | CCc1nc2ccccc2n1-c1nc(N2CCOCC2)c2nc(OC3CN(C(=O)C4CC4)C3)n(C)c2n1 [Compound 119, Cyclopropyl(3-(2-(2-ethyl-1H-benzo[d]imidazol-1-yl)-9-methyl-6-morpholino-9H-purin-8-yloxy)azetidin-1-yl)methanone]
20 | 1.29 | 51 | CCc1nc2ccccc2n1-c1nc(N2CCOCC2)c2nc(OC3CN(C(=O)C(C)(C)N)C3)n(C)c2n1 [Compound 121, 2-amino-1-(3-(2-(2-ethyl-1H-benzo[d]imidazol-1-yl)-9-methyl-6-morpholino-9H-purin-8-yloxy)azetidin-1-yl)-2-methylpropan-1-one]
